Assay results from US9884122B2, “Small molecule drug conjugates” (Philochem AG, priority 2014, dated 2018).

Key:
[1] = molecular target: T1, recombinant carbonic anhydrase IX (Homo sapiens, UniProt Q16790); experiment: Determination of ligand KD by fluorescence polarization; assay type: binding; conditions: for Kd: 5 nM labeled ligand, 1 h room temperature, read-out: KD for fluorophore-linker-ligand complexes
T1 construct: Recombinant CAIX was expressed as described previously; made in house
Experimental: Fluorescently labeled ligands (2 mg) were dissolved in DMSO (100 μL) and diluted 1:2000 into PBS pH 7.4 to determine the stock's concentration by absorbance measurement at 495 nm (ε495=72,000 M^−1 cm^−1). Recombinant CAIX was expressed as described previously^[3], dialyzed against assay buffer (50 mM tris(hydroxymethyl)aminomethane [TIRS] pH 7.4 containing 1 mM ZnSO4) at 4° C. overnight and the protein concentration determined by absorbance measurement at 280 nm (ε280=35,075 M^−1 cm^−1).
In a black 384-well plate in assay buffer (30 μL) fluorescently labeled ligands (5 nM from appropriately diluted DMSO stocks, final DMSO content adjusted to 0.001%) were incubated with increasing concentrations of recombinant carbonic anhydrase IX (4.6 μM to 140 pM in steps of 1:2) for 1 h at room temperature. The fluorescence polarization (FP) was measured on a Spectra Max Paradigm multimode plate reader (Molecular Devices). Experiments were performed in triplicate, mean FP values divided by the top-plateau signal and the fractional FP value fit to equation (2) using KaleidaGraph 4.0 (Synergy Software). FP=([P]0+[L]0+KD)−√{square root over (([P]0+[L]0+KD)^2−4[P]0[L]0)} (2)
Where FP is the fractional fluorescence polarization, [P]0 the total protein concentration, [L]0 the total concentration of the fluorescently labeled ligand and KD the dissociation constant in nM.

[2] = test system: CAIX-expressing SKRC52 xenografts; conditions: mouse, in vivo
[3] = test system: CAIX expressing SKRC52 cells; experiment: In vitro cytotoxicity assay (MTS); assay type: cell-based, human
Experimental: SKRC52 or A549 cells were seeded in 96-well plates in their appropriate culture medium (100 μL) at a density of 5000 cells per well and allowed to grow for 24 h. The medium was replaced with medium containing different concentrations of test substance (100 μL, 300 nM-15 pM in 1:3 dilution steps) and plates were either:
(a) incubated for 72 hours in the presence of the toxic substance, or
(b) incubated for 1 h under standard culture conditions, followed by removal of the medium containing the toxic substance, gently washing the cells fresh medium once and adding new medium (100 μL) and incubating for 72 h under culture conditions.
MTS cell viability dye (20 μL, Promega) was added, the plates were incubated for 1 h under culture conditions and the absorbance at 490 nm measured on a Spectra Max Paradigm multimode plate reader (Molecular Devices). Experiments were performed in triplicate and average cell viability calculated as measured background corrected absorbance divided by the absorbance of untreated control wells. EC50 values were determined by fitting data to the four-parameter logistic equation.

SKRC52 xenograft tumors = test system: SKRC52 xenograft tumors
Experimental: SKRC52 xenograft tumors were implanted into balb/c nu/nu mice (Charles River) as described above. […] 5 doses of 4 nmol 7a,b, 8a,b or 7 doses of 70 nmol 9a,b each in PBS pH 7.4 (150 μL) containing 5% DMSO were given on 5 or 7 consecutive days and one group was treated with vehicle (5% DMSO in PBS pH 7.4). In the case of 7-9b an equimolar amount of AAZ was added to the injection solution to control for a possible antitumor activity of CAIX inhibitors. Sorafenib and sunitnib were administered at a standard dose of 30 mg/kg as described previously.^[5] Animals were weighed and tumor sizes measured daily and the tumor volume calculated according to the formula (long side)×(short side)^2×0.5. […] Prism 6 (GraphPad Software) was used for data analysis (regular two-way ANOVA with the Bonferroni test).

[4] = molecular target: T1, recombinant carbonic anhydrase IX; experiment: biochemical; assay type: binding
Experimental: The FP was measured on a Spectra Max Paradigm multimode plate reader (Molecular Devices). Experiments were performed in triplicate and data analyzed as described by Wang and co-workers.^[4]

[5] = test system: subcutaneous SKRC52 tumors; conditions: 3 nmol intravenous, 1-12 h
Experimental: SKRC52 cells were grown to 80% confluence and detached with Trypsin-EDTA 0.05% (Invitrogen). Cells were washed with PBS pH 7.4 once, counted and resuspended in PBS to a final concentration of 6.7×10^7 cells mL^−1. Athymic balb/c nu/nu mice, 8-10 weeks of age (Charles River) were anesthetized with isofluorane and aliquots of 1×10^7 cells (150 μL of suspension) injected subcutaneously into their lower back.
Food and water was given ad libitum during that period.
Mice were subsequently sacrificed by cervical dislocation.

[6] = Homo sapiens, SK-RC-52, Condition (a): incubated 72 hours in the presence of the toxic substance
[7] = Homo sapiens, SK-RC-52, Condition (b): 1 h exposure, wash, then 72 h, concentrations up to 300 nM
[8] = Condition (b): 1 h exposure, wash, then 72 h, concentrations up to 300 nM

With `CC(C)(C)OC(=O)NCCOCCOCCNC(=S)Nc1ccc(-c2c3ccc(=O)cc-3oc3cc(O)ccc23)c(C(=O)O)c1` [Compound 6a, Tert-butyl (2-(2-(2-aminoethoxy)ethoxy)ethyl)carbamate fluorescein conjugate] the “binding to CAIX (in words)” value [1] was “did not bind to the CAIX”.
`NS(=O)(=O)c1ccc(Nc2nc(Cl)nc(NCCOCCOCCNC(=S)Nc3ccc(-c4c5ccc(=O)cc-5oc5cc(O)ccc45)c(C(=O)O)c3)n2)cc1` [Compound 3a, 4-((4-((2-(2-(2-aminoethoxy)ethoxy)ethyl)amino)-6-chloro-1,3,5-triazin-2-yl)amino)benzenesulfonamide fluorescein conjugate] was tested, and the Kd [1] was 46.8 ± 1.2 nM.
With `CC1(C)C(/C=C/C2=C(c3ccc(CCCCC(=O)NCCOCCOCCNC(=O)[C@H](CCCCNC(=O)[C@H](CC(=O)O)NC(=O)[C@H](CC(=O)O)NC(=O)CCCCn4cc(CCCC(=O)Nc5nnc(S(N)(=O)=O)s5)nn4)NC(=O)[C@H](CC(=O)O)NC(=O)[C@H](CC(=O)O)NC(=O)CCCCn4cc(CCCC(=O)Nc5nnc(S(N)(=O)=O)s5)nn4)cc3)C(=C/C=C3/N(CCCCS(=O)(=O)O)c4ccc(S(=O)(=O)O)cc4C3(C)C)/CCC2)=[N+](CCCCS(=O)(=O)[O-])c2ccc(S(=O)(=O)O)cc21` [Compound B4] the “accumulation in the tumour (imaging)” value [2] was “strongly accumulated in the tumour”, the “integrated fluorescence signal in the tumour, of its initial value” [2] was 40% and the “residence on the tumour” value [2] was “significantly longer residence on the tumour”. For the same molecule, the “tumour:lung ratio” value [2] was “higher tumour:lung ratio than B3”.
`NS(=O)(=O)c1ccc(C(=O)NCCOCCOCCNC(=S)Nc2ccc(-c3c4ccc(=O)cc-4oc4cc(O)ccc34)c(C(=O)O)c2)cc1` [Compound 5a, N-(2-(2-(2-aminoethoxy)ethoxy)ethyl)-4-sulfamoylbenzamide fluorescein conjugate] showed a Kd [1] of 218 ± 9 nM.
`COc1cc2[nH]c(C(=O)N3C[C@@H](CCl)c4c3cc(O)c3ccccc43)cc2cc1OCCN(C)C` [Compound 14, Seco CBI Drug] was tested, and the EC50 [3, 6] was 0.055 ± 0.005 nM and the EC50 [3, 7] was 1 ± 0.1 nM.
In the case of `CNC(=O)c1cc(Oc2ccc(NC(=O)Nc3ccc(Cl)c(C(F)(F)F)c3)cc2)ccn1` [sorafenib, reference compound], the “antitumor effect of standard drugs” value (SKRC52 xenograft tumors; standard dose of 30 mg/kg) is reported as “neither sorafenib nor sunitinib, which represent the most commonly used chemotherapeutic agents for the treatment of kidney cancer, exhibited any detectable antitumor effect”.
`COc1cc2[nH]cc(C(=O)N3C[C@@H](CCl)c4c3cc(OC(=O)OCCSSC[C@H](NC(=O)[C@H](CC(=O)O)NC(=O)[C@H](CCCNC(=N)N)NC(=O)[C@H](CC(=O)O)NC(=O)CCCCn3cc(CCCC(=O)O)nn3)C(=O)O)c3ccccc43)c2cc1OCCN(C)C` [Compound 7b, Untargeted CBI Carbonate] was tested, and the “binding affinity for recombinant CAIX in vitro (in words)” value (from here on “binding affinity for recombinant CAIX”) [4] was “do not exhibit strong binding”, the Kd ([4]; unlabeled drug-linker conjugate, read-out: KD (competitive fluorescence polarization)) was > 1000 nM and the EC50 [3, 8] was 1.4 ± 0.3 nM.
For `COc1cc2cc(c1Cl)N(C)C(=O)C[C@H](OC(=O)[C@H](C)N(C)C(=O)CCS)[C@]1(C)O[C@H]1[C@H](C)[C@@H]1C[C@@](O)(NC(=O)O1)[C@H](OC)/C=C/C=C(\C)C2` [DM1, reference compound], the EC50 [3, 8] was 45 ± 10 nM.
In the case of `NS(=O)(=O)c1nnc(NC(=O)CCC(=O)NCCOCCOCCNC(=S)Nc2ccc(-c3c4ccc(=O)cc-4oc4cc(O)ccc34)c(C(=O)O)c2)s1` [Compound 1a, N1-(2-(2-(2-aminoethoxy)ethoxy)ethyl)-N4-(5-sulfamoyl-1,3,4-thiadiazol-2-yl)succinamide fluorescein conjugate], the Kd [1] is reported as 12.6 ± 1 nM.
In the case of `COc1cc2[nH]cc(C(=O)N3C[C@@H](CCl)c4c3cc(OC(=O)N(C)CCSSC[C@H](NC(=O)[C@H](CC(=O)O)NC(=O)[C@H](CCCNC(=N)N)NC(=O)[C@H](CC(=O)O)NC(=O)CCCCn3cc(CCCC(=O)O)nn3)C(=O)O)c3ccccc43)c2cc1OCCN(C)C` [Compound 8b, Untargeted CBI Carbamate], the “binding affinity for recombinant CAIX” value [4] is reported as “do not exhibit strong binding” and the tumor growth effect (SKRC52 xenograft tumors; 5 doses of 4 nmol on 5 consecutive days, 7a vs vehicle p<0.0001, vs 7b plus AAZ p<0.05) is reported as “did not lead to any retardation in tumor growth”.
`CC(C)[C@@H](C(=O)NCCOCCOCCNC(=O)CCCCc1ccc(C2=C(/C=C/C3=[N+](CCCCS(=O)(=O)O)c4ccc(S(=O)(=O)O)cc4C3(C)C)CCC/C2=C\C=C2\N(CCCCS(=O)(=O)O)c3ccc(S(=O)(=O)[O-])cc3C2(C)C)cc1)n1cc(-c2ccc(S(N)(=O)=O)cc2)nn1` [Compound 2c, (S)—N-(2-(2-(2-aminoethoxy)ethoxy)ethyl)-3-methyl-2-(4-(4-sulfamoylphenyl)-1H-1,2,3-triazol-1-yl)butanamide IRDye750 conjugate] was tested, and the “tumor targeting by near infrared imaging” value [5] was “the tumor was barely visible”.
For `COc1cc2cc(c1Cl)N(C)C(=O)C[C@@H](OC(=O)[C@@H](C)NC(=O)CCSC)[C@]1(C)O[C@@H]1[C@@H](C)[C@@H]1C[C@](O)(NC(=O)O1)[C@@H](OC)/C=C/C=C(\C)C2` [DM1SMe, DM1-SMe, reference compound], the EC50 [3, 6] was 0.5 nM and the EC50 [3, 7] was 5.8 ± 1.1 nM.
For `COc1cc2cc(c1Cl)N(C)C(=O)C[C@H](OC(=O)[C@H](C)N(C)C(=O)CCSSC[C@H](NC(=O)[C@H](CC(=O)O)NC(=O)[C@H](CCCNC(=N)N)NC(=O)[C@H](CC(=O)O)NC(=O)CCCCn1cc(CCCC(=O)O)nn1)C(=O)O)[C@@]1(C)O[C@H]1[C@H](C)[C@@H]1C[C@@](O)(NC(=O)O1)[C@H](OC)/C=C/C=C(\C)C2` [Compound 9b, Untargeted DM1 Conjugate], the “binding affinity for recombinant CAIX” value [4] was “do not exhibit strong binding”.
`CC(C)[C@@H](C(=O)NCCOCCOCCNC(=S)Nc1ccc(-c2c3ccc(=O)cc-3oc3cc(O)ccc23)c(C(=O)O)c1)n1cc(-c2ccc(S(N)(=O)=O)cc2)nn1` [Compound 2a, (S)—N-(2-(2-(2-aminoethoxy)ethoxy)ethyl)-3-methyl-2-(4-(4-sulfamoylphenyl)-1H-1,2,3-triazol-1-yl)butanamide fluorescein conjugate] was tested, and the Kd [1] was 18.1 ± 1.3 nM.
